Test results taken from PubChem BioAssay AID2037 (NMMLSC, 2009).

Target: Cell division control protein 42 homolog (Homo sapiens) (UniProt P60953)
Assay: blockade of fluorescent GTP uptake by Cdc42 wt – biochemical, bead-based multiplex flow cytometry, oxadiazole series, SAR follow-up (AID 2037)
Conditions: GST-Cdc42 beads, Bodipy-FL-GTP binding, Ki calculated from EC50

Chain of Cell division control protein 42 homolog (Homo sapiens) (P60953 whole entry, looked up): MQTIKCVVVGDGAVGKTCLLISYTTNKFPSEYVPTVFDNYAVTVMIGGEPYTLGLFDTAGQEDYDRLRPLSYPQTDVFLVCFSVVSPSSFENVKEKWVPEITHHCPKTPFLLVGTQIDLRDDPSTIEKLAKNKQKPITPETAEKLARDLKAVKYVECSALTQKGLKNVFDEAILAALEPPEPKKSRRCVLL

Compound	Ki [µM]
COc1ccc(-c2noc(CCC(=O)N3CCN(c4ccc(C)cc4)CC3)n2)cc1	0.12
COc1ccc(-c2noc(CCC(=O)N3CCN(c4cc(C)ccc4C)CC3)n2)cc1	0.58
COc1ccc(-c2noc(CCC(=O)N3CCN(c4ccccc4C(F)(F)F)CC3)n2)cc1	0.42
Cc1ccc(C)c(N2CCN(C(=O)CCc3nc(-c4cccc(Cl)c4)no3)CC2)c1	0.46
COc1ccc(-c2noc(CCC(=O)N3CCN(c4cccc(C)c4C)CC3)n2)cc1	0.24
COc1ccc(-c2noc(CCC(=O)N3CCN(c4cccc(C(F)(F)F)c4)CC3)n2)cc1	0.41
COc1ccc(-c2coc(CCC(=O)N3CCN(c4cc(C)ccc4C)CC3)n2)cc1	0.48
Cc1ccc(C)c(N2CCN(C(=O)CCc3nc(-c4ccc(Br)cc4)no3)CC2)c1	0.34
Cc1ccc(C)c(N2CCN(C(=O)CCc3nc(-c4ccccc4)no3)CC2)c1	0.85
COc1ccc(-c2noc(CCC(=O)N3CCN(c4ccccc4C)CC3)n2)cc1	0.36
COc1cccc(-c2noc(CCC(=O)N3CCN(c4cc(C)ccc4C)CC3)n2)c1	0.59
Cc1ccc(C)c(N2CCN(C(=O)CCc3nc(-c4ccc(F)cc4)no3)CC2)c1	0.08
Cc1ccc(C)c(N2CCN(C(=O)CCc3nc(-c4ccccc4Br)no3)CC2)c1	0.49
Cc1ccc(C)c(N2CCN(C(=O)CCc3nc(-c4ccccc4C(F)(F)F)no3)CC2)c1	1.05
COc1ccc(-c2noc(CCC(=O)N3CCN(c4ccc(OC)cc4)CC3)n2)cc1	0.1
COc1ccc(-c2noc(CCC(=O)N3CCN(c4ccccc4Cl)CC3)n2)cc1	0.17
COc1ccc(-c2noc(CCC(=O)N3CCN(c4cccc(OC)c4)CC3)n2)cc1	2.55
Cc1ccc(C)c(N2CCN(C(=O)CCc3nc(-c4cccc(Br)c4)no3)CC2)c1	0.45
COc1ccc(-c2noc(CCCC(=O)N3CCN(c4cc(C)ccc4C)CC3)n2)cc1	1.31
Cc1ccc(C)c(N2CCN(C(=O)CCc3nc(-c4ccc(Cl)cc4)no3)CC2)c1	0.36

The remaining lines, values ahead:

Ki [µM]	Compound
0.49	COc1ccc(-c2noc(CCC(=O)N3CCN(c4ccccc4Br)CC3)n2)cc1
0.25	Cc1ccc(C)c(N2CCN(C(=O)CCc3nc(-c4ccc(N(C)C)cc4)no3)CC2)c1
0.14	COc1ccc(-c2noc(CCC(=O)N3CCN(c4ccccc4F)CC3)n2)cc1
0.78	COc1ccc(-c2cccc(CCC(=O)N3CCN(c4cc(C)ccc4C)CC3)c2)cc1
0.22	Cc1cccc(-c2noc(CCC(=O)N3CCN(c4cc(C)ccc4C)CC3)n2)c1
0.33	COc1ccccc1-c1noc(CCC(=O)N2CCN(c3cc(C)ccc3C)CC2)n1
0.3	COc1ccc(-c2noc(CCC(=O)N3CCC(c4cc(C)ccc4C)CC3)n2)cc1
0.68	Cc1ccc(C)c(N2CCN(C(=O)CCc3nc(-c4ccc(C(F)(F)F)cc4)no3)CC2)c1
0.92	Cc1ccc(-c2noc(CCC(=O)N3CCN(c4cc(C)ccc4C)CC3)n2)cc1
